# Test results: patent US20240327434A1, “FUSED TETRACYCLIC COMPOUND, PREPARATION METHOD THEREFOR AND APPLICATION THEREOF IN MEDICINE” (Jiangsu Hengrui Pharmaceuticals Co., Ltd., priority 2021, published 2024)
# Assays:
# [1] = system: ERK phosphorylation of AGS cells; assay: Inhibition of ERK phosphorylation of AGS cells (HTRF method); format: cell-based; settings: Homo sapiens, 1 h compound incubation, phosphorylated ERK/total ERK ratio, read-out: AGS/ IC50 (nM), inhibitory activity for ERK phosphorylation
# Experimental: In the experiment, the inhibition effect of the compounds on ERK phosphorylation of the cells was detected, and the inhibition effect of the compounds disclosed herein on the KRAS target was evaluated according to the IC50.
# AGS cells (Nanjing Cobioer, CBP60476) were cultured in RPMI1640 (Hyclone, SH30809.01) complete medium containing 10% fetal bovine serum. On the first day of the experiment, the AGS cells were seeded into a 96-well plate with complete medium at a density of 40,000 cells/well to form 190 μL of cell suspension per well. The plate was incubated overnight in a cell incubator at 37° C. with 5% CO2.
# The next day, 10 μL of serially-diluted test compound prepared from the complete medium was added to each well. The final concentrations of the compound were 9 concentration points obtained by 5-fold serial dilution from 10 μM. A blank control containing 0.5% DMSO was set. The well plate was incubated in a cell incubator at 37° C. with 5% CO2 for 1 h. After completion of incubation, the 96-well cell culture plate was taken out, the medium was removed by pipetting, 200 μL PBS (Shanghai BasalMedia Technologies Co., Ltd., B320) was added to each well, and the cells were washed once. PBS was removed by pipetting, 50 μL of lysis buffer (Cisbio, 64KL1FDF) containing a blocking solution (blocking reagent, Cisbio, 64KB1AAC) was added to each well, and the well plate was lysed on a shaker for 40 min at room temperature with shaking. After lysis, the lysate was pipetted and mixed well, 16 μL of lysate was transferred to two HTRF 96-well assay plates (Cisbio, 66PL96100) per well, and then 4 μL of premixed phosphorylated ERK1/2 antibody solution (Cisbio, 64AERPEG) or 4 μL of premixed total ERK1/2 antibody solution (Cisbio, 64NRKPEG) was added to these two plates. The microplate was sealed with a sealing membrane, centrifuged for 1 min in a microplate centrifuge, and incubated overnight at room temperature in the dark. On the third day, the fluorescence values at an excitation wavelength of 337 nm and at emission wavelengths of 665 nm and 620 nm were read using an ENVISION multifunctional microplate reader (PerkinElmer, ENVISION).
# GP2d cells = assay: Inhibition of 3D proliferation of GP2d cells (CellTiter-Glo 3D); format: cell-based; settings: 120 h incubation, read-out: GP2d/ IC50 (nM), inhibitory activity for 3D proliferation
# Experimental: (§1) The inhibition effect of the compounds disclosed herein on the KRAS target was evaluated by testing the 3D proliferation inhibition effect of the compounds disclosed herein on GP2d and AGS cells.
# GP2d cells (Nanjing Cobioer, CBP60010) were cultured in a complete medium, namely DMEM/high glucose medium (Hyclone, SH30243.01) containing 10% fetal bovine serum (Corning, 35-076-CV). On the first day of the experiment, GP2d cells were seeded into a 96-well low adsorption plate (Corning, CLS7007-24EA) with complete medium at a density of 1,000 cells/well to form 90 μL of cell suspension per well. The plate was centrifuged at 2,000 rpm for 5 min at room temperature and then incubated overnight in a cell incubator at 37° C. with 5% CO2.
# The next day, 10 μL of serially-diluted test compound prepared from the complete medium was added to each well. […] A blank control containing 0.5% DMSO was set. The well plate was incubated in a cell incubator at 37° C. with 5% CO2 for 120 h.
# AGS cells = assay: Inhibition of 3D proliferation of AGS cells (CellTiter-Glo 3D); format: cell-based; settings: Homo sapiens, 120 h incubation, read-out: AGS/ IC50 (nM), inhibitory activity for 3D proliferation
# Experimental: as §1
# AGS cells (Nanjing Cobioer, CBP60476) were cultured in a complete medium, namely RPMI1640 medium (Hyclone, SH30809.01) containing 10% fetal bovine serum (Corning, 35-076-CV). On the first day of the experiment, the AGS cells were seeded into a 96-well low adsorption plate (Corning, CLS7007-24EA) at a density of 1,000 cells/well using complete medium to form 90 μL of cell suspension per well. The plate was centrifuged at 2,000 rpm for 5 min at room temperature and then incubated overnight in a cell incubator at 37° C. with 5% CO2.
# The next day, 10 μL of serially-diluted test compound prepared from the complete medium was added to each well. […] On the seventh day, the 96-well cell culture plate was taken out, 50 μL CellTiter-Glo® 3D reagent (Promega, G9682) was added into each well, the plate was shaken at room temperature for 25 min, pipetted and mixed well, 50 μL of the solution was transferred into a white impermeable 96-well plate (PE, 6005290), and the luminescence signal values were read using a multifunctional microplate reader (PerkinElmer, ENVISION).
# [2] = molecular target: KRAS protein subtype G12D (Avi-KRAS-G12D) (Homo sapiens (Human), UniProt P01116, G12D); assay: SPR affinity for KRAS protein subtype G12D (Biacore 8K); format: binding; settings: single-cycle kinetic mode, 1:1 model, read-out: G12D KD (unit mol/L)
# Experimental: (§2) Biotinylated Avi-KRAS-WT or Avi-KRAS-G12D was diluted to 20 μg/mL with 1x HBS-P+(Cat. #BR1006-71) buffer containing 100 mM MgCl2, and then flowed through SA (Cat. #BR1005-31) biosensing chip channel 2 for 420 s to obtain a coupling level of approximately 5000-7000 RU. Then samples of small molecular compounds were injected for 120 s in an ascending order, and then were dissociated for 720 s. The experiment employed a single-cycle kinetic mode. Reaction signals were detected in real time using a Biacore 8K instrument to obtain association and dissociation curves. After the experiment ended, data analysis was performed using Biacore 8K evaluation software, and affinity data were obtained by performing data fitting using a 1:1 model.
# [3] = molecular target: KRAS protein subtype WT (Avi-KRAS-WT) (Homo sapiens (Human), UniProt P01116); assay: SPR affinity for KRAS protein subtype WT (Biacore 8K); format: binding; settings: single-cycle kinetic mode, 1:1 model, read-out: WT KD (unit mol/L)
# Experimental: as §2
# Sequence of KRAS protein subtype G12D (Avi-KRAS-G12D) (P01116 whole entry G12D): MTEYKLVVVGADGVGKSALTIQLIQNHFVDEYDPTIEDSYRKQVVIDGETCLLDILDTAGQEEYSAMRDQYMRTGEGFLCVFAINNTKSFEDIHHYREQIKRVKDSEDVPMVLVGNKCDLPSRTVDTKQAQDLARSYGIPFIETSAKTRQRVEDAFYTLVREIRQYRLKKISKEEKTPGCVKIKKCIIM
# Sequence of KRAS protein subtype WT (Avi-KRAS-WT) (P01116 whole entry): as the sequence (P01116 whole entry G12D) above, with D12G counted along it
SMILES,IC50 [1],IC50 (GP2d cells),IC50 (AGS cells),Kd [2],Kd [3]
"CCc1c(F)ccc2cc(O)cc(-c3nc4c5c(nc(OCC6(CN7CC8CC8(CO)C7)CC6)nc5c3F)N3C[C@H]5CC[C@H](N5)[C@H]3CO4)c12 (stereo partly drawn) [Example 23, 5-Ethyl-6-fluoro-4-((5aS,6S,9R)-1-fluoro-12-((1-((1-(hydroxymethyl)-3-azabicyclo[3.1.0]hex-3-yl)methyl)cyclopropyl)methoxy)-5a,6,7,8,9,10-hexahydro-5H-4-oxa-3,10a, 11,13,14-pentaaza-6,9-methanonaphtho[1,8-ab]heptalen-2-yl)naphthalen-2-ol]",4 nM,8.8 nM,108 nM,,
"CCc1c(F)ccc2cc(O)cc(-c3nc4c5c(nc(OCC6(CN7C[C@H]8C[C@H]8[C@H]7CO)CC6)nc5c3F)N3C[C@H]5CC[C@H](N5)[C@H]3CO4)c12 [Example 22, 5-Ethyl-6-fluoro-4-((5aS,6S,9R)-1-fluoro-12-((1-(((1R,2S,5S)-2-(hydroxymethyl)-3-azabicyclo[3.1.0]hex-3-yl)methyl)cyclopropyl)methoxy)-5a,6,7,8,9,10-hexahydro-5H-4-oxa-3,10a, 11,13,14-pentaaza-6,9-methanonaphtho[1,8-ab]heptalen-2-yl)naphthalen-2-ol]",10.2 nM,9.6 nM,,,
"CCc1cccc2cc(O)cc(-c3cc4nc(OC[C@@]56CCCN5C[C@H](F)C6)nc5c4c(n3)OCC3C4CCC(CN53)N4)c12 (mixture of isomers) [Diastereomeric (1:1) mixture of 2-p1 and 2-p2, 5-Ethyl-4-(12-(((2R,7aS)-2-fluorotetrahydro-1H-pyrrolizin-7a(5H)-yl)methoxy)-5a,6,7,8,9,10-hexahydro-5H-4-oxa-3,10a,11,13,14-pentaaza-6,9-methanonaphtho[1,8-ab]heptalen-2-yl) naphthalen-2-ol]",,,,0.4 nM,32.4 nM
"CCc1cccc2cc(O)cc(-c3cc4c5c(nc(OC[C@@]67CCCN6C[C@H](F)C7)nc5c3F)N3CC5CCC(N5)C3CO4)c12 (mixture of isomers) [Diastereomeric (1:1) mixture of 11-p1 and 11-p2, 5-Ethyl-4-(1-fluoro-13-(((2R,7aS)-2-fluorotetrahydro-1H-pyrrolizin-7a(5H)-yl)methoxy)-5a,6,7,8,9,10-hexahydro-5H-6,9-epiminoazepino[2′,1′: 3,4][1,4]oxazepino[5,6,7-de]quinazolin-2-yl) naphthalen-2-ol]",15.6 nM,62.5 nM,,,
"Oc1cc(-c2nc3c4c(nc(OC[C@@]56CCCN5C[C@H](F)C6)nc4c2F)N2C[C@H]4CC[C@H](N4)[C@H]2CO3)c2c(F)c(F)ccc2c1 [Example 8-p1, 5,6-Difluoro-4-((5aS,6S,9R)-1-fluoro-12-(((2R,7aS)-2-fluorotetrahydro-1H-pyrrolizin-7 a(5H)-yl)methoxy)-5a,6,7,8,9,10-hexahydro-5H-4-oxa-3,10a,11,13,14-pentaaza-6,9-methanonaphtho[1,8-ab]heptalen-2-yl)naphthalen-2-ol]",,,,0.1 nM,3.8 nM
"CCc1cccc2cc(O)cc(-c3nc4c5c(nc(OC[C@@]67CCCN6C[C@H](F)C7)nc5c3F)N3CC5CCC(N5)C3CO4)c12 (mixture of isomers) [Diastereomeric (1:1) mixture of 4-p1 and 4-p2, 5-Ethyl-4-(1-fluoro-12-(((2R,7aS)-2-fluorotetrahydro-1H-pyrrolizin-7a(5H)-yl)methoxy)-5a,6,7,8,9,10-hexahydro-5H-4-oxa-3,10a,11,13,14-pentaaza-6,9-methanonaphtho[1,8-ab]heptalen-2-yl)naphthalen-2-ol]",1.35 nM,,,,
"CCc1c(F)ccc2cc(O)cc(-c3nc4c5c(nc(OC[C@@]67CCCN6C[C@H](F)C7)nc5c3F)N3C[C@H]5CC[C@H](N5)[C@H]3CO4)c12 [Example 9-p1, 5-Ethyl-6-fluoro-4-((5aS,6S,9R)-1-fluoro-12-(((2R,7aS)-2-fluorotetrahydro-1H-pyrrolizin-7a(5H)-yl)methoxy)-5a,6,7,8,9,10-hexahydro-5H-4-oxa-3,10a, 11,13,14-pentaaza-6,9-methanonaphtho[1,8-ab]heptalen-2-yl)naphthalen-2-ol]",,,,0.03 nM,1.54 nM
"Oc1cc(Cl)c(C2CC2)c(-c2nc3c4c(nc(OC[C@@]56CCCN5C[C@H](F)C6)nc4c2F)N2C[C@H]4CC[C@H](N4)[C@H]2CO3)c1 [Example 6-p1, 3-Chloro-4-cyclopropyl-5-((5aS,6S,9R)-1-fluoro-12-(((2R,7aS)-2-fluorotetrahydro-1H-pyrrolizin-7a(5H)-yl)methoxy)-5a,6,7,8,9,10-hexahydro-5H-4-oxa-3,10a,11,13,14-pentaaza-6,9-methanonaphtho[1,8-ab]heptalen-2-yl)phenol]",,,,0.1 nM,7 nM
"Oc1cc(-c2cc3nc(OC[C@@]45CCCN4C[C@H](F)C5)nc4c3c(n2)OCC2C3CCC(CN42)N3)c2c(F)cccc2c1 (mixture of isomers) [Diastereomeric (1:1) mixture of 1-p1 and 1-p2, 5-Fluoro-4-(12-(((2R,7aS)-2-fluorotetrahydro-1 H-pyrrolizin-7a(5H)-yl)methoxy)-5a,6,7,8,9,10-hexahydro-5H-4-oxa-3,10a,11,13,14-pentaaza-6,9-methanonaphtho[1,8-ab]heptalen-2-yl) naphthalen-2-ol]",94.1 nM,,,,
"CCc1cccc2cc(O)cc(-c3nc4c5c(nc(OC[C@@]67CCCN6C[C@H](F)C7)nc5c3F)N3C[C@H]5CC[C@H](N5)[C@H]3CO4)c12 [Example 4-p1, 5-Ethyl-4-((5aS,6S,9R)-1-fluoro-12-(((2R,7aS)-2-fluorotetrahydro-1H-pyrrolizin-7a(5H)-yl)methoxy)-5a,6,7,8,9,10-hexahydro-5H-4-oxa-3,10a, 11,13,14-pentaaza-6,9-methanonaphtho[1,8-ab]heptalen-2-yl)naphthalen-2-ol]",,,,0.14 nM,3.4 nM
